In patent US20040142899A1, “Compositions and methods for enhanced biostability and altered biodistribution of oligonucleotides in mammals” (ISIS Pharmaceuticals, Inc., priority 1990, published 2004):
Values joined by “and” are separate entries in the source; they are usually repeats but may differ in a detail not shown here. Equal entries are not always repeated.

What was measured:
[1] = system: E2 gene of bovine papilloma virus type 1 (BPV-1); test: E2 transactivation assay (pE2RE-1-CAT) in I-38 cells; type: cell-based, bovine papilloma virus-1; conditions: I-38 cells transfected with pE2RE-1-CAT, harvested after 48 hours; lower = more inhibition; listed as positive control compound
[2] = system: MDR1 mRNA; test: MDR1 mRNA expression by Northern blotting in MDR 3T3 cells; type: cell-based, human; conditions: for MDR1 mRNA Level (arbitrary units) / % Control (MDR1 mRNA): oligonucleotide 1 μm, with Lipofectin; for MDR1 mRNA Level (arbitrary units): serum free medium; for % Control (MDR1 mRNA): control = untreated cells
Method: NIH 3T3 cells transfected with a plasmid containing the human MDR1 gene (pSK1 MDR) have been previously described (Kane et al., Gene, 1989, 84, 439). These cells have proven to be useful models for the study of multi-drug resistance phenomena. Cells were grown in DMEM media containing 10% fetal bovine serum (FBS) and 60 ng/ml colchicine in an atmosphere of 95% air, 5% CO2.
Cells were grown in […] flasks.
To measure MDR1 mRNA expression by Northern blotting, total cellular RNA was isolated by lysis in 4M guanidium isothiocyanate followed by a cesium chloride gradient, and the RNA was resolved on 1.2% agarose gels containing 1.2% formaldehyde and transferred to nitrocellulose membranes (Dean et al., J. Biol. Chem., 1994, 269, 16416). The blots were hybridized with a ^32P radiolabeled human MDR1 cDNA probe. The MDR1 cDNA probe was isolated by performing a polymerase chain reaction on the pSK1 MDR plasmid, as described previously (Alahari et al., Nucl. Acids Res., 1993, 21, 4079). The following oligonucleotide primers were used for PCR: […]
The resulting fragment was checked on an agarose gel and was radiolabeled with ^32P-dCTP using a commercially available random primer labeling kit (Amersham, Arlington Heights, Ill.) according to the manufacturer's instructions. The filters were hybridized overnight in hybridization buffer (25 mM KPO4, pH 7.4; 5×SSC; 5×Denhardt's solution, 100 ug/ml Salmon sperm DNA and 50% formamide) (Alahari et al., Nucl. Acids Res., 1993, 21, 4079). This was followed by two washes with 1×SSC, 0.1% SDS and two washes with 0.25×SSC, 0.1% SDS. Hybridizing bands were visualized by exposure to X-OMAT AR film and quantitated using a PhosphorImager™ (Molecular Dynamics, Sunnyvale, Calif.). To confirm equal loading of RNA, the blots were stripped and reprobed with a ^32P-labeled beta-actin probe (Clontech, Palo Alto, Calif).
In initial experiments, the MDR 3T3 cells were exposed to 1.0 μm concentrations of several different antisense oligonucleotides, or control oligonucleotides, in the presence of 20 ug/ml LIPOFECTIN® for 24 hours. […] NIH 3T3 cells transfected with pSK1 MDR plasmid were grown to 90% confluence and treated with oligonucleotide (1 μm) for 24 hours in the presence of Lipofectin® in serum free medium. Total RNA was isolated and fractionated on agarose formaldehyde gels and blotted onto nitrocellulose membranes. These membranes were probed with a ^32P radiolabeled 1.0 kb MDR1 cDNA, and then stripped and reprobed with a ^32P radiolabeled beta-actin cDNA probe to confirm equal loading of RNA, allowing the levels of MDR1 transcripts to be normalized with regard to the beta-actin bands. Transcript levels were quantitated using a PHOSPHORIMAGER™ (Molecular Dynamics, Sunnyvale, Calif.); the values are expressed in arbitrary units (the beta-actin transcripts were essentially constant).

[3] = system: P-glycoprotein; test: P-glycoprotein expression by Western blotting in MDR 3T3 cells; type: cell-based, human; conditions: maximum only after 72 hours exposure
Method: Transfected MDR NIH 3T3 cells were grown and treated with oligonucleotides as described in Example (9)(B). In order to measure P-glycoprotein expression by Western blotting, cells were seeded in 60 mm dishes at 1.2×10^6 per dish and incubated for 24 hours in serum containing medium. The cells were treated with the oligomers for various times in serum free medium as described above. Cells were then extracted in lysis buffer (20 mM Tris, pH 7.5, 2 mM EDTA, 500 mM EGTA, 2 mM PMSF, 1 mM DTT, aprotonin (10 ug/ml), 0.5% Triton-X) and sonicated briefly. The lysate was spun in a microfuge tube for 20 minutes at 4° C. and the resulting supernatant was checked for protein content. Equal amounts of protein (usually 20 ug) were mixed with SDS sample buffer and boiled. Protein samples were separated by 8% SDS PAGE and the resolved proteins were electrophoretically transferred onto polyvinyllidene fluoride membranes (Millipore, Bedford, Mass.). The membranes were blocked (with 3% BSA, 2% non fat dry milk in PBS) and then treated with 2 ug/ml C219 anti-P-glycoprotein antibody (Signet, Dedham, Mass.). After washing three times with 0.1% Tween 20, the membranes were incubated with rabbit anti-mouse antibody (Cappel, Durham, N.C.). Immunoreactive proteins were visualized either by ECL (Enhanced Chemiluminescence, Amersham, Arlington Heights, Ill.) or with ^125I secondary antibodies.

[4] = system: P-glycoprotein; test: Cell surface P-glycoprotein by immunofluorescent staining and flow cytometry in MDR 3T3 cells; type: cell-based, human; conditions: 1 μm administered with LIPOFECTIN, parallel experiment
Method: MDR 3T3 cells were treated with various concentrations of oligonucleotides ISIS 11073 (5′-cholesterol 5995), or ISIS 12064 (5′-cholesterol 10221; scrambled control) for 48 hours in serum free medium. The cells were recovered and stained with an anti-P-glycoprotein monoclonal antibody directed against a surface epitope, followed by a phycoerythrin-conjugated second antibody. The level of cell surface fluorescence in viable cells was quantitated using a flow cytometer; light scatter parameters were set so as to exclude non-viable cells. […] The results represent means and standard errors for 6 determinations.
Transfected MDR NIH 3T3 cells were grown and treated with oligonucleotides as described in Example (9)(B). MDR1 mRNA expression was measured by Northern blotting as described in Example (9)(C). In order to measure cell surface P-glycoprotein levels by flow cytometry, cells were seeded in 60 mm dishes at 1.2×10^6/plate in 5 ml of medium, grown for one day in 10% FBS/DMEM, and exposed to the oligomers in serum free medium. […] The level of R-PE fluorescence in viable cells (as determined by light scatter) was quantitated using the Cicero software application (Cytomation, Fort Collins, Co.) on a Becton Dickinson flow cytometer.

[5] = system: multi-drug resistant 3T3 cells
[6] = system: MDR1 mRNA; test: MDR1 mRNA expression by Northern blotting in MDR 3T3 cells; type: cell-based, human
[7] = system: DNA complementary strand, Oligomer 40; test: Melting analysis (Tm) of 2′-O-pentylamino linker strand against DNA complementary strand; type: binding
Method: (§1) The test oligonucleotides (either the phosphodiester, phosphorothioate, cholic acid conjugated phosphodiester, cholic acid conjugated phosphorothioate or 5′-aminolink intermediate phosphodiester or phosphorothioate oligonucleotides of the invention or otherwise) and either the complementary DNA or RNA oligonucleotides were incubated at a standard concentration of 4 μM for each oligonucleotide in buffer (100 mM NaCl, 10 mM Na-phosphate, pH 7.0, 0.1 mM EDTA). Samples were heated to 90 degrees C. and the initial absorbance taken using a Guilford Response II spectro-photometer (Corning, Inc., Corning, N.Y.). Samples were then slowly cooled to 15° C. and then the change in absorbance at 260 nm was monitored during the heat denaturation procedure. The temperature was elevated 1 degree/absorbance reading and the denaturation profile analyzed by taking the 1st derivative of the melting curve. Data was also analyzed using a two-state linear regression analysis to determine the Tm's. The results of these tests are shown in Table 3 as are the HPLC retention times of certain of the test compounds.
(§2) Melting analysis was conducted as per the method of Procedure B(1)(b).

[8] = system: RNA complementary strand, Oligomer 41; test: Melting analysis (Tm) of 2′-O-pentylamino linker strand against RNA complementary strand; type: binding
Method: as §1, §2

[9] = system: mouse ICAM-1 mRNA; test: ICAM-1 mRNA levels in LPS-treated mice (Northern analysis); type: in vivo
Method: (§3) Mice were treated with oligonucleotides and examined as follows. […] Then, to induce ICAM-1 expression, bacterial lipopolysaccharide (LPS) was injected into the mice. After 2 hours, the mice were sacrificed, and particular organs, or specific portion thereof, were removed for further study. RNA was prepared from isolated, homogenized tissues essentially according to the guanidinium/CsCl purification method of Chirgwin et al. (Biochemistry, […], 18, 5294), electrophoresed and transferred to nylon membranes for hybridization studies (Northern analysis) according to methods well known in the art. In order to detect mouse ICAM-1 mRNA, a radiolabelled probe was prepared by random oligonucleotide-primed synthesis using a mouse ICAM-1 clone as a template. The blots were stripped and reprobed with a ^32P-labeled glyceraldehyde 3-phosphate dehydrogenase (G3PDH) probe (Clontech Laboratories, Inc., Palo Alto, Calif.) in order to confirm equal loading of RNA and to allow the levels of ICAM-1 transcripts to be normalized with regard to the G3PDH signals. Hybridizing bands were visualized by exposure to X-OMAT AR film and quantitated using a PHOSPHORIMAGER™ essentially according to the manufacturer's instructions (Molecular Dynamics, Sunnyvale, Calif.).

[10] = system: c-raf mRNA; test: c-raf mRNA levels in murine liver (gene target specificity); type: in vivo, mouse; conditions: 10 mg/kg
Method: as §3
(§4) In similar experiments, the sequence (gene target) specificity of the 5′-cholesterol antisense oligonucleotide ISIS 8005 was examined.

[11] = system: PECAM-1 mRNA; test: PECAM-1 mRNA levels in murine liver (gene target specificity); type: in vivo, mouse; conditions: 10 mg/kg
Method: as §3, §4

[12] = system: ICAM-1 protein
[13] = Oligomer 38 versus unmodified Oligomer 39

5′-CTG-TCT-CCA-TCC-TCT-TCA-CT (CTGTCTCCATCCTCTTCACT; all phosphorothioate, sugars by position and methylation of C not given here) [Oligomer 42]
percent acetylation (chloramphenicol acetyl transferase) [1]: 29% and 30%

CAC-CAC-CCC-CCT-CGC-TGG-TC (CACCACCCCCCTCGCTGGTC; chemistry not given here) [ISIS 10221, reference compound]
MDR1 mRNA Level (arbitrary units) ([2]; 24 hours): 456,522 arbitrary units | % Control (MDR1 mRNA) ([2]; 24 hours): 96% | reduction of P-glycoprotein (Western assays) [3]: did not reduce P-glycoprotein expression | effect on P-glycoprotein surface expression [4]: less effective than an equivalent concentration of the cholesterol-conjugated analogs | non-specific effects at higher concentrations [5]: reduced beta-actin message levels and increased cytotoxicity | MDR1/beta-actin ratio ([6]; repeated experiments, laser densitometry of autoradiograms): 1.01

CCA-TCC-CGA-CCT-CGC-GCT-CC (CCATCCCGACCTCGCGCTCC; chemistry not given here) [ISIS 5995]
reduction in MDR1 message levels ([2]; 1.0 μm, 20 ug/ml LIPOFECTIN, 24 hours): about 50% | time to normal levels of MDR1 mRNA after return to medium without oligonucleotide ([2]; after 24 hours exposure): ≤ 24 h | reduction in MDR1 message at maximal specific effect ([2]; approximately 1.0 μm, 24 hours, LIPOFECTIN (FIG. 1)): approximately 60% | MDR1 mRNA Level (arbitrary units) ([2]; 24 hours): 226,087 arbitrary units | % Control (MDR1 mRNA) ([2]; 24 hours): 48% | reduction of P-glycoprotein (Western assays) [3]: at least 80% | effect on P-glycoprotein surface expression [4]: less effective than an equivalent concentration of the cholesterol-conjugated analogs | treatment time of maximum specific reduction of MDR1 mRNA ([6]; 1 μm, 24, 48 and 72 hours tested): 24 h | lowest concentration with some reduction in message levels ([6]; dose response 50-1000 nM, 24 hours, LIPOFECTIN): 100 nM

GGA*-CCG-GA*A*-GGT-A*CG-A*G (GGACCGGAAGGTACGAG; chemistry not fully specified) [Oligomer 38, A* = pentylamino functionality at 2′-position]
change in Tm (Δ38-39) DNA [7, 13]: (6.1) degrees | Tm DNA ([7]; against Oligomer 40, 4 μM each strand, 100 mM NaCl, 10 mM Phosphate, 0.1 mM EDTA, pH 7.0): 54.5 degrees centigrade | change in Tm (Δ38-39) RNA [8, 13]: (1.1) degrees | Tm RNA ([8]; against Oligomer 41, 4 μM each strand, 100 mM NaCl, 10 mM Phosphate, 0.1 mM EDTA, pH 7.0): 58.0 degrees centigrade

U*GC-ATC-CCC-CAG-GCC-ACC-AT [ISIS 8005]
reduction of hepatic ICAM-1 mRNA relative to LPS without oligonucleotide ([9]; liver, 30 mg/kg i.v. 24 and 2 hours prior to LPS): about 50% | reversal of LPS-mediated induction of ICAM-1 mRNA in the lung ([9]; lung samples, 30 mg/kg): neither ISIS 3082 nor its 5′-cholesterol conjugate ISIS 8005 was able to reverse the LPS-mediated induction of ICAM-1 to any great degree | effect on c-raf mRNA levels [10]: no effect | effect on PECAM-1 mRNA levels [11]: no effect | ICAM-1 staining of liver sections ([12]; LPS-induced livers, HRP-conjugated secondary antibodies): virtually indistinguishable | overall cellular structure of liver ([12]; mouse, in vivo): no gross cellular defects
